In patent publication US20220096485A1, “FUNCTIONALIZED PYRANO[2,3-D]PYRIMIDIN-7-ONE DERIVATIVES AND METHODS FOR THEIR PREPARATION AND USE” (The Texas A&M University System, priority 2016, published 2022) one finds Kd data, which are given here for 10 compounds.

The assay has as its target Abelson kinase 2 (ABL2) (Homo sapiens, UniProt P42684). In words: Eurofins Arg (ABL2) Human TK Kinase Binding Assay.

Sequence of Abelson kinase 2 (ABL2) (P42684 whole entry): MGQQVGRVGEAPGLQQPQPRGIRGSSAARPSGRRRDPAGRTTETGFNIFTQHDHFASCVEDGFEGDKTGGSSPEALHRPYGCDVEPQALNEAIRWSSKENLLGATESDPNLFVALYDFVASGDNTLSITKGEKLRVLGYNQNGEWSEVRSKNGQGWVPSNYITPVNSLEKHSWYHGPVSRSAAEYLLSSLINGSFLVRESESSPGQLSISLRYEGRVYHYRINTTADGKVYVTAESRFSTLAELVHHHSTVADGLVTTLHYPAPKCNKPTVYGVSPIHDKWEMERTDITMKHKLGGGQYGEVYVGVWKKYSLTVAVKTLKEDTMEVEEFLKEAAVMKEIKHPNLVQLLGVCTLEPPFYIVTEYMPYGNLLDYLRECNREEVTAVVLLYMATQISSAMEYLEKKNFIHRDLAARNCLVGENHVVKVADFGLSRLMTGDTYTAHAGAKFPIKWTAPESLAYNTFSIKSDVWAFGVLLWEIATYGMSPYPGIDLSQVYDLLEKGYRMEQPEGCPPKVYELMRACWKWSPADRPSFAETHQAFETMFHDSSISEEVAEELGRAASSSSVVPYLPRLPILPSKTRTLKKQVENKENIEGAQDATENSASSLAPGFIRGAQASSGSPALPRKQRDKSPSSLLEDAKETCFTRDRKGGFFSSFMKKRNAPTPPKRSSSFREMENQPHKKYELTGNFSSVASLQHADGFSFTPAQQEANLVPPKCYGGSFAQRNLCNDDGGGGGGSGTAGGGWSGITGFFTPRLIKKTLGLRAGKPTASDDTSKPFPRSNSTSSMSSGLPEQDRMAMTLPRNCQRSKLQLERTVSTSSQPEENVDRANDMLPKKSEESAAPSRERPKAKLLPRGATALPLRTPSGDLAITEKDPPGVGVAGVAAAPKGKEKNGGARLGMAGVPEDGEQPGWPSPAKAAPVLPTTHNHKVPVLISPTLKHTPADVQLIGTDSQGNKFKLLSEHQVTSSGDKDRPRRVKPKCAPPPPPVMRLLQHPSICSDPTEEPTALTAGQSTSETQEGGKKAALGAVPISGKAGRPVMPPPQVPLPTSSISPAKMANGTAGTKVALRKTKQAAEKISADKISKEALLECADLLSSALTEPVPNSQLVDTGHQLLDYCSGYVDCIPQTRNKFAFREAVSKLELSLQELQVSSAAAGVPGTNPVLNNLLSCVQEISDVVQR

One may read the Kd as the equilibrium constant for the complex coming apart. Read a low Kd as higher affinity. For `Nc1cccc(Nc2ncc3cc(-c4ccccc4)c(=O)oc3n2)c1` [Compound 19c, 2-(3-Aminophenylamino)-6-phenyl-7H-pyrano[2,3-d]pyrimidin-7-one], binding was characterised by a dissociation constant (Kd) of 130 nM.

As to `COc1cccc(Nc2ncc3cc(-c4c(Cl)cccc4Cl)c(=O)oc3n2)c1` [Compound 12e, 6-(2,6-Dichlorophenyl)-2-(3-methoxyphenylamino)-7H-pyrano[2,3-d]pyrimidin-7-one], the Kd was found to be 1.3 nM.

The compound `Nc1cccc(Nc2ncc3cc(-c4c(Cl)cccc4Cl)c(=O)oc3n2)c1` [Compound 12c, 2-(3-Aminophenylamino)-6-(2,6-dichlorophenyl)-7H-pyrano[2,3-d]pyrimidin-7-one] gave a Kd of 1.1 nM.

Turning to `Cc1cccc(C)c1-c1cc2cnc(Nc3cccc(N)c3)nc2oc1=O` [Compound 19a, 2-(3-Aminophenylamino)-6-(2,6-dimethylphenyl)-7H-pyrano[2,3-d]pyrimidine-7-one], the Kd amounted to 1.3 nM.

Compound `Cc1cc(Nc2ncc3cc(-c4c(Cl)cccc4Cl)c(=O)oc3n2)ccc1F` [Compound 12a, 2-(4-Fluoro-3-methylphenylamino)-6-(2,6-dichlorophenyl)-7H-pyrano[2,3-d]pyrimidin-7-one] returned a Kd of 3.9 nM.

On to `CC(=O)Nc1cccc(Nc2ncc3cc(-c4c(Cl)cccc4Cl)c(=O)oc3n2)c1` [Compound 12g, N-(3-(6-(2,6-Dichlorophenyl)-7-oxo-7H-pyrano[2,3-d]pyrimidine-2-ylamino)-phenyl)-acetamide], for which the Kd was 1.1 nM. Against the preceding compound, the Kd is about 3.5-fold lower.

Take `CN(C)c1ccc(Nc2ncc3cc(-c4c(Cl)cccc4Cl)c(=O)oc3n2)cc1` [Compound 12f, 6-(2,6-Dichlorophenyl)-2-(4-(dimethylamino)phenylamino)-7H-pyrano[2,3-d]pyrimidine-7-one]: the Kd turned out to be 6.9 nM.

Compound `CC(=O)Nc1cccc(Nc2ncc3cc(-c4c(C)cccc4C)c(=O)oc3n2)c1` [Compound 19b, N-(3-(6-(2,6-Dimethylphenyl)-7-oxo-7H-pyrano[2,3-d]pyrimidine-2-ylamino)phenyl)-acetamide] showed a Kd of 1.3 nM.

Compound `N#Cc1cccc(Nc2ncc3cc(-c4c(Cl)cccc4Cl)c(=O)oc3n2)c1` [Compound 12d, 3-(6-(2,6-Dichlorophenyl)-7-oxo-7H-pyrano[2,3-d]pyrimidin-2-ylamino)benzonitrile] gave a dissociation constant Kd of 4.5 nM. Against the preceding compound, the Kd is about 3.5-fold higher.

`CSc1cccc(Nc2ncc3cc(-c4c(Cl)cccc4Cl)c(=O)oc3n2)c1` [Compound 12b, 2-(3-(Methylthio)phenylamino)-6-(2,6-dichlorophenyl)-7H-pyrano[2,3-d]pyrimidin-7-one] returned a Kd of 3.8 nM. This Kd and that of the compound before are within 1.5-fold of each other.
